Earlier results as cited in publication PMC12682947, “Identification of New KCNT1‐Epilepsy Drugs by In Silico, Cell, and Drosophila Modeling” (Annals of Neurology, 2025).
Where a name gives a salt, the structure may show the parent alone.

Test system: hERG potassium channels
Settings: read-out: IC50 for inhibition of hERG potassium channels; cited from earlier work

Cc1c(O)cccc1C(=O)N[C@@H](CSc1ccccc1)[C@H](O)CN1C[C@H]2CCCC[C@H]2C[C@H]1C(=O)NC(C)(C)C [nelfinavir mesylate]
IC50: 11.5 µM
